# Experimental data taken from ChEMBL document CHEMBL4011641, “Prodrugs of Pyrazolo[3,4-d]pyrimidines: From Library Synthesis to Evaluation as Potential Anticancer Agents in an Orthotopic Glioblastoma Model” (J Med Chem, 2017).
# Columns and labels:
# [1] = Antitumor activity against human U87 cells xenografted in nude immunodeficient CD1 mouse assessed as mean survival time at 50 mg/kg, po administered every other day (reference value: 30 day); format: functional, U-87MG ATCC
# [2] = Half life in PBS buffer at 100 uM at pH 7.4 by UV/LC-MS analysis; format: physicochemical
# [3] = Half life in methanol at 100 uM by UV/LC-MS analysis; format: physicochemical
# [4] = Metabolic stability in human liver microsomes assessed as parent compound remaining at 50 uM after 1 hr in presence of NADPH regenerating system by UV/LC-MS analysis; format: ADME, microsome; details: read-out: Stability
# [5] = Drug uptake in cytoplasm of human U87 cells at 20 uM after 2 hrs by UV/LC-MS analysis; format: ADME
# [6] = Drug uptake in cytoplasm of human U87 cells at 20 uM after 5 hrs by UV/LC-MS analysis; format: ADME
# [7] = biological target: T1, Liver carboxylesterase 1 (Homo sapiens, UniProt P23141); assay: Drug metabolism assessed as human CES1-mediated compound hydrolysis at 10 to 100 uM after 1 hr by UV/HPLC-MS analysis; format: ADME
# T1 sequence (P23141 whole entry): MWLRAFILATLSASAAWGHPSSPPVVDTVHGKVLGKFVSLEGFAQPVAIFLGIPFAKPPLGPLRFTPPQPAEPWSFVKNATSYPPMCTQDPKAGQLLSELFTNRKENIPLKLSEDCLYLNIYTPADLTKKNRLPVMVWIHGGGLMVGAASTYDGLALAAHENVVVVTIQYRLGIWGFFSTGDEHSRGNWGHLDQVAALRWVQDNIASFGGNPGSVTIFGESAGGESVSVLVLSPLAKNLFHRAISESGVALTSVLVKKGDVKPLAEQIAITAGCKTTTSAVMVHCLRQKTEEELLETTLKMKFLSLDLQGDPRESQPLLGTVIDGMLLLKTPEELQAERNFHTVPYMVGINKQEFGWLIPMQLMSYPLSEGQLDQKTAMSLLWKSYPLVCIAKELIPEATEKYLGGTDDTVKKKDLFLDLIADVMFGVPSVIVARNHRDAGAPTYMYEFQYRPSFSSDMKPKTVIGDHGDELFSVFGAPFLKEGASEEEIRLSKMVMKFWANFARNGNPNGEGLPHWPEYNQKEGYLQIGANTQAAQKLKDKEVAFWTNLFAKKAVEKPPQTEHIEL
# [8] = Half life in mouse plasma by UV/LC-MS analysis; format: ADME, cell-free
# [9] = Metabolic stability in mouse liver microsomes assessed as unmetabolized compound remaining at 50 uM after 1 hr in presence of NADPH regenerating system by UV/LC-MS analysis; format: ADME, microsome; details: read-out: Stability
# [10] = Plasma concentration in BALB/C mouse at 50 mg/kg, ip via bolus administration measured at 24 hrs post dose by UV/LC-MS; format: ADME, organism-based
# [11] = system: Plasma; assay: Prodrug conversion in BALB/C mouse plasma assessed as N-(3-bromophenyl)-1-(2-chloro-2-phenylethyl)-6-(2-morpholinoethylthio)-1H-pyrazolo[3,4-d]pyrimidin-4-amine formation at 50 mg/kg, ip via bolus administration measured at 24 hrs post dose by UV/LC-MS; format: ADME, organism-based; details: in vivo
# [12] = system: Brain; assay: Drug uptake in BALB/C mouse brain at 50 mg/kg, ip via bolus administration measured at 24 hrs post dose by UV/LC-MS analysis; format: ADME, organism-based; details: in vivo
# [13] = Cmax in BALB/C mouse at 50 mg/kg, ip administered via bolus dose using DMSO formulation measured at 1 to 24 hrs post dose by UV/LC-MS analysis; format: ADME, organism-based; set-up: dose 50 mg/kg, route intraperitoneal; details: in vivo
# [14] = Tmax in BALB/C mouse at 50 mg/kg, ip administered via bolus dose using DMSO formulation measured at 1 to 24 hrs post dose by UV/LC-MS analysis; format: ADME, organism-based; details: in vivo
# [15] = MRT in BALB/C mouse at 50 mg/kg, ip administered via bolus dose using DMSO formulation measured at 1 to 24 hrs post dose by UV/LC-MS analysis; format: ADME, organism-based; details: in vivo
# [16] = AUC (0 to infinity) in BALB/C mouse at 50 mg/kg, ip administered via bolus dose using DMSO formulation measured at 1 to 24 hrs post dose by UV/LC-MS analysis; format: ADME, organism-based; set-up: dose 50 mg/kg, time infinity, route intraperitoneal; details: in vivo
# [17] = AUC (0 to 24 hrs) in BALB/C mouse at 50 mg/kg, ip administered via bolus dose using DMSO formulation measured at 1 to 24 hrs post dose by UV/LC-MS analysis; format: ADME, organism-based; set-up: dose 50 mg/kg, time < 24 hr, route intraperitoneal; details: in vivo
# [18] = Plasma clearance in BALB/C mouse at 50 mg/kg, ip administered via bolus dose using DMSO formulation measured at 1 to 24 hrs post dose by UV/LC-MS analysis; format: ADME, organism-based
# [19] = Half life in BALB/C mouse at 50 mg/kg, ip administered via bolus dose using DMSO formulation measured at 1 to 24 hrs post dose by UV/LC-MS analysis; format: ADME, organism-based; details: in vivo
# [20] = system: Plasma; assay: Plasma concentration in BALB/C mouse at 50 mg/kg, ip via bolus administration measured at 24 hrs post dose by UV/LC-MS relative to N-(3-bromophenyl)-1-(2-chloro-2-phenylethyl)-6-(2-morpholinoethylthio)-1H-pyrazolo[3,4-d]pyrimidin-4-amine; format: ADME, organism-based; details: in vivo
# [21] = Prodrug activation in human U87 cells assessed as N-(3-bromophenyl)-1-(2-chloro-2-phenylethyl)-6-(2-morpholinoethylthio)-1H-pyrazolo[3,4-d]pyrimidin-4-amine formation at 20 uM up to 25 hrs by UV/LC-MS analysis; format: cell-based; details: u-87mg atcc
# [22] = system: Brain; assay: Prodrug conversion in BALB/C mouse brain assessed as N-(3-bromophenyl)-1-(2-chloro-2-phenylethyl)-6-(2-morpholinoethylthio)-1H-pyrazolo[3,4-d]pyrimidin-4-amine formation at 50 mg/kg, ip via bolus administration measured at 24 hrs post dose by UV/LC-MS; format: ADME, organism-based; details: in vivo
# [23] = system: Kidney; assay: Drug uptake in BALB/C mouse kidney at 50 mg/kg, ip via bolus administration measured at 24 hrs post dose by UV/LC-MS; format: ADME, organism-based; details: in vivo
# [24] = system: Kidney; assay: Prodrug conversion in BALB/C mouse kidney assessed as N-(3-bromophenyl)-1-(2-chloro-2-phenylethyl)-6-(2-morpholinoethylthio)-1H-pyrazolo[3,4-d]pyrimidin-4-amine formation at 50 mg/kg, ip via bolus administration measured at 24 hrs post dose by UV/LC-MS; format: ADME, organism-based; details: in vivo
# [25] = Drug uptake in BALB/C mouse adipose tissue at 50 mg/kg, ip via bolus administration measured at 24 hrs post dose by UV/LC-MS; format: ADME, organism-based; details: in vivo
# [26] = Prodrug conversion in BALB/C mouse adipose tissue assessed as N-(3-bromophenyl)-1-(2-chloro-2-phenylethyl)-6-(2-morpholinoethylthio)-1H-pyrazolo[3,4-d]pyrimidin-4-amine formation at 50 mg/kg, ip via bolus administration measured at 24 hrs post dose by UV/LC-MS; format: ADME, organism-based; details: in vivo
# [27] = system: Liver; assay: Drug uptake in BALB/C mouse liver at 50 mg/kg, ip via bolus administration measured at 24 hrs post dose by UV/LC-MS; format: ADME, organism-based; details: in vivo
# [28] = system: Liver; assay: Prodrug conversion in BALB/C mouse liver assessed as N-(3-bromophenyl)-1-(2-chloro-2-phenylethyl)-6-(2-morpholinoethylthio)-1H-pyrazolo[3,4-d]pyrimidin-4-amine formation at 50 mg/kg, ip via bolus administration measured at 24 hrs post dose by UV/LC-MS; format: ADME, organism-based; details: in vivo
# [29] = biological target: Tyrosine-protein kinase ABL1 (Homo sapiens, UniProt P00519)
# Tyrosine-protein kinase ABL1, sequence (P00519 whole entry): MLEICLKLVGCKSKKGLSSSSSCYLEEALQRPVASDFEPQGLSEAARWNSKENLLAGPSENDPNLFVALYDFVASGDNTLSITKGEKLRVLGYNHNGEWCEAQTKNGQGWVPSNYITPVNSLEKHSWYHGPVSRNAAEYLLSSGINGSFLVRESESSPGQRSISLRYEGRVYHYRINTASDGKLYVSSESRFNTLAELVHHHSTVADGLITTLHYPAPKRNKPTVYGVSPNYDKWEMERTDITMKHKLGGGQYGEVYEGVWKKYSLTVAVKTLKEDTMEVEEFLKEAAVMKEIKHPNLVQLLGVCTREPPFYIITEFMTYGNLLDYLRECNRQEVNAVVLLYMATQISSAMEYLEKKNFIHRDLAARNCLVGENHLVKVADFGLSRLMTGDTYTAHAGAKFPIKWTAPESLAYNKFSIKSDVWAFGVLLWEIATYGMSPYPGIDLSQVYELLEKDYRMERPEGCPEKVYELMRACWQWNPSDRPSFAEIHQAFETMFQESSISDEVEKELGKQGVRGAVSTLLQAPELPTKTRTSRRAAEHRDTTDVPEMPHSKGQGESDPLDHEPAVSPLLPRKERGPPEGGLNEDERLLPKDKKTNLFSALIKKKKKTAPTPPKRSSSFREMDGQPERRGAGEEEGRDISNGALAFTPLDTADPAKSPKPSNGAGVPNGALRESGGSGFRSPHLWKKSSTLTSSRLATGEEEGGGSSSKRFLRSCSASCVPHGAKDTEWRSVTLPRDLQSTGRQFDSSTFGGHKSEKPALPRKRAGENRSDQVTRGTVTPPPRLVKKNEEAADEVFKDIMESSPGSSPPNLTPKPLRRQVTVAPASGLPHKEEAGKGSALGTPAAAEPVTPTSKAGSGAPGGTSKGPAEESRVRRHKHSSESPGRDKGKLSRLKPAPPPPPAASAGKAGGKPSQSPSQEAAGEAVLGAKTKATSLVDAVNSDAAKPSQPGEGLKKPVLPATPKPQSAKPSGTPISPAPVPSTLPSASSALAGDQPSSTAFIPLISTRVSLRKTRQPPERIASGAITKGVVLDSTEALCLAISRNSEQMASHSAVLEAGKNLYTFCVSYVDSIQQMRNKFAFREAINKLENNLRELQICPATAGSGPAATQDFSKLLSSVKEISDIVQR
# Description: Inhibition of human wild type full length N-terminal GST/6His-tagged ABL (P118 to S535 residues) expressed in Sf9 cells using abltide as substrate after 5 mins in presence of [gamma-32P]ATP by scintillation counting
# [30] = cells; details: Homo sapiens, U-87 MG, 24 h
# Description: Cytotoxicity against human U87 cells assessed as reduction in cell viability after 24 hrs by trypan blue assay
# [31] = cells; details: Homo sapiens, U-87 MG, 48 h
# Description: Cytotoxicity against human U87 cells assessed as reduction in cell viability after 48 hrs by trypan blue assay
# [32] = cells; details: Homo sapiens, U-87 MG, 72 h
# Description: Cytotoxicity against human U87 cells assessed as reduction in cell viability after 72 hrs by trypan blue assay
# [33] = physchem; details: PAMPA
# Description: Apparent permeability at 500 uM after 5 hrs by Gastro-intestinal-based PAMPA
# [34] = physchem; details: PAMPA; remark: listed apart in the source
# Description: Apparent permeability at 500 uM after 5 hrs by Blood-Brain Barrier-based PAMPA
# [35] = physchem; details: aqueous
# Description: Aqueous solubility of compound at 1 mg after 24 hrs by UV/LC-MS analysis
# [36] = biological target: Proto-oncogene tyrosine-protein kinase Src (Homo sapiens, UniProt P12931); assay: biochemical
# Proto-oncogene tyrosine-protein kinase Src, sequence (P12931 2-536 limits assumed): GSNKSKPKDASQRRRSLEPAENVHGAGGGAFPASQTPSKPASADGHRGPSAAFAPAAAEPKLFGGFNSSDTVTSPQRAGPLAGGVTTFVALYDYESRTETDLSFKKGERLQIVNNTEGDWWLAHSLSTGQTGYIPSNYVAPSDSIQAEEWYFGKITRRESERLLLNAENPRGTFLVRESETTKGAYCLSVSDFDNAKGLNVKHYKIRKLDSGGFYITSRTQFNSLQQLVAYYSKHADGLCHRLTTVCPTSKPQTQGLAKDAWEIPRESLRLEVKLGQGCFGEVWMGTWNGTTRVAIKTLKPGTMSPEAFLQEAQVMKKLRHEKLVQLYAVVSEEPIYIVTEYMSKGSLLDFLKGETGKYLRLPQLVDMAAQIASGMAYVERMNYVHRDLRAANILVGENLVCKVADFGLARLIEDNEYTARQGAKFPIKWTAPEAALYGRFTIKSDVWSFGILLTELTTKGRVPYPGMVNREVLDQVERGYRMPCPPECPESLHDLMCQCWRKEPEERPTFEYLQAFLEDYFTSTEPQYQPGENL
# Description: Inhibition of human wild type full length N-terminal GST/6His-tagged SRC (M1 to L536 residues) expressed in baculovirus infected Sf9 cells using src peptide as substrate after 5 mins in presence of [gamma-32P]ATP by scintillation counting method
structure (smiles),measurement,setting,value
CN1CCN(CCOC(=O)N(c2cccc(Br)c2)c2nc(SCCN3CCOCC3)nc3c2cnn3CC(Cl)c2ccccc2)CC1 (stereo unspecified),MST,[1],49 days
same,half-life at 100 µM,[2],> 48 h
same,half-life at 100 µM,[3],> 48 h
same,"remaining at 1 h, 50 µM",[4],93.6%
same,Drug uptake,[5],Active
same,Drug uptake,[6],Active
same,Drug metabolism,[7],Metabolite_Notdetected
same,half-life,[8],1.16 h
same,"remaining at 1 h, 50 µM",[9],93.1%
same,concentration at 24 h,[10],5.4 µM
same,Drug metabolism,[11],3.3 nmol/mL
same,Drug uptake,[12],6.4 nmol/g
same,Cmax,[13],8.78 µM
same,Tmax,[14],1 h
same,MRT,[15],33.3 h
same,AUC(0-inf),[16],265 µM·h
same,AUC(0-t) at 24 h,[17],136 µM·h
same,CL/F,[18],0.14 mL/min
same,half-life,[19],23.8 h
same,fold change (FC),[20],2
same,Drug metabolism,[21],Metabolite_Detected
same,Drug metabolism,[22],5.2 nmol/g
same,Drug uptake,[23],6.8 nmol/g
same,Drug metabolism,[24],2.6 nmol/g
same,Drug uptake,[25],1.8 nmol/g
same,Drug metabolism,[26],20.5 nmol/g
same,Drug uptake,[27],0.8 nmol/g
same,Drug metabolism,[28],3.6 nmol/g
same,Ki,[29],> 100 µM
same,IC50,[30],7.5 µM
same,IC50,[31],5.2 µM
same,IC50,[32],1.8 µM
same,"Papp at 5 h, 500 µM",[33],2.13 ×10⁻⁶ cm/s
same,"Papp at 5 h, 500 µM",[34],2.91 ×10⁻⁶ cm/s
same,solubility at 24 h,[35],8.7 µg/mL
same,Ki,[36],> 100 µM
